Test results taken from patent US6642215B2 (Leo Pharma A/S, priority 2001, dated 2003).
Where two headings read alike, the source gives them in different places.

Assays:
IκBα, IκBβ = test: Western blotting of LPS-induced IκB degradation in THP-1 cells; format: cell-based, human; conditions: 1 μM compound 24 h before 1 μg/ml LPS for 10 to 30 min, versus DMSO-treated cells
Description: Western blotting: THP-1 cells (5×10^6 cells) were starved overnight at 37° C., 5% CO2 in starvation medium (RPMI 1640 with 2% FBS) including 1 μM of compound A or 0.01% DMSO. The cells were hereafter stimulated with 1 μg/ml LPS (E. coli serotype 055: B5, Sigma-Aldrich Danmark AS, Vallensbaek Strand, Denmark) at the indicated times. Whole cell extracts were prepared in lysis buffer (50 mM HEPES, pH 7.5, 150 mM NaCl, 10 mM EDTA, 10 mM Na4P2O7, 100 mM NaF, 2 mM Na3VO4, 1% Triton-X-100, 0.5 mM Pefabloc (Boehringer Mannheim GmbH, Mannheim, Germany), […]).
A 3×SDS-sample buffer (125 mM Tris/HCl pH 6.8, 4% SDS, 20% glycerol, 0.025% bromphenol blue, 10% DTT) was added to 200 μl of clarified cell lysate, and the sample (20 μl) was boiled and electrophoresed on a 12% SDS-polyacrylamide gel. The primary antibodies (anti-IκBα, anti-IκBβ, anti-cdk-7; all from Santa Cruz Biotechnology Inc., Heidelberg, Germany) were diluted 1:1000. The secondary antibody (anti-rabbit-HRP from DAKO A/S, Glostrup, Denmark) was used in a 1:2000 dilution. […] The relative amounts of the transferred proteins were quantified by using the ImageQuant Software (Molecular Dynamics, Sunnyvale, Calif., USA) by scanning the autoradiographic films and normalized to the related cdk-7 amounts.

IKK = target: T1, IKK (Homo sapiens, UniProt O14920); test: In vitro kinase assay: IKK immunoprecipitated from LPS-stimulated THP-1 cells, GST-IκBα phosphorylation; format: biochemical; conditions: 30 min pretreatment of LPS-activated IKK
T1 construct: IKK was immunoprecipitated with an IKKα/β antibody; endogenous in cells; host or cells: THP-1 cells stimulated with 1 μg/ml LPS; whole cell extract immunoprecipitated with an IKKα/β antibody (Santa Cruz)
Description: In vitro kinase assay: THP-1 cells (1×10^7 cells) were stimulated with 1 μg/ml LPS for the indicated time periods and whole cell extracts were prepared as described above. IKK was immunoprecipitated with an IKKα/β antibody (raised against amino acid 470-755 of IKKβ of human origin but partially cross-reactive with IKKα as detected by Western Blotting (Santa Cruz Biotechnology Inc.). Compound A was diluted in kinase buffer (25 mM HEPES pH 7.5, 10 mM magnesium acetate, 50 μM ATP) at the appropriate concentrations. The compound was added to the beads for 30 min. at 30° C. The kinase reaction was started by adding 2.5 μg of the GST-IκBα substrate (Santa Cruz Biotechnology Inc.) together with 2 μCi γ-^32P-ATP (Amersham Pharmacia Biotech) per sample. The reaction was allowed to proceed for 30 min. at 30° C., and the IKK activity was measured by the amount of radioactive-labelled GST-IκBα bands, quantified by the STORM860 Phospho-Imager.
A general problem with the kinase assay is prestimulation of the kinase. To achieve a value for the zero-point, the LPS-activated IKK mixture was incubated with 20 μM myricetin (Sigma-Aldrich), which is a known IKKβ inhibitor (S. H. Tsal et al., J. Cell Biochem. 74, 1999, pp. 606-615). This value was subtracted from the all other values. All data are expressed as percentage of the activity of the LPS-activated IKKβ kinase treated with 0.1% DMSO.

NF-κB = test: NF-κB-dependent luciferase assay in Colo-320 cells, TNF-α stimulation; format: cell-based, human; conditions: Homo sapiens, compound 24 h before TNF-α 50 ng/ml 6 h, mean ± SD
Description: The NF-κB-luciferase reporter plasmid (pBIIX) and pRL-TK control vector described in Example 1 were used for the luciferase assay,
The Colo-320 cells were seeded with a density of 5×10^4 cells/cm^2 in 6-well plates (NUNC). The following day, the cells were co-transfected with construct DNA and pRL-TK using FuGene Transfection Reagent (Boehringer Mannheim). A mixture of 5 μl Fugene and 95 μl serum free medium (per well) was prepared and incubated for 5 min at room temperature. Then, the mixture was transferred to a mixture of construct DNA (2.5 μg per well) and pRL-TK vector (0.25 μg per well), gently mixed, incubated for 15 min at room temperature and added to the cells. The cells were treated at 37° C. with compound A (10^−12−10^−5 M) or DMSO for 24 h before stimulation with TNF-α (50 ng/ml) for 6 h.
The cell lysate was assayed for luciferase activity using the Dual luciferase kit as described by the manufacturer (Promega). All transfections were performed in triplicate. Firefly luciferase activity was corrected for differences in transfection efficiency by normalizing it to the measured Renilla luciferase activity.
NF-κB activity was measured by the luciferase assay described in Example 1.

T1 sequence (O14920 whole entry): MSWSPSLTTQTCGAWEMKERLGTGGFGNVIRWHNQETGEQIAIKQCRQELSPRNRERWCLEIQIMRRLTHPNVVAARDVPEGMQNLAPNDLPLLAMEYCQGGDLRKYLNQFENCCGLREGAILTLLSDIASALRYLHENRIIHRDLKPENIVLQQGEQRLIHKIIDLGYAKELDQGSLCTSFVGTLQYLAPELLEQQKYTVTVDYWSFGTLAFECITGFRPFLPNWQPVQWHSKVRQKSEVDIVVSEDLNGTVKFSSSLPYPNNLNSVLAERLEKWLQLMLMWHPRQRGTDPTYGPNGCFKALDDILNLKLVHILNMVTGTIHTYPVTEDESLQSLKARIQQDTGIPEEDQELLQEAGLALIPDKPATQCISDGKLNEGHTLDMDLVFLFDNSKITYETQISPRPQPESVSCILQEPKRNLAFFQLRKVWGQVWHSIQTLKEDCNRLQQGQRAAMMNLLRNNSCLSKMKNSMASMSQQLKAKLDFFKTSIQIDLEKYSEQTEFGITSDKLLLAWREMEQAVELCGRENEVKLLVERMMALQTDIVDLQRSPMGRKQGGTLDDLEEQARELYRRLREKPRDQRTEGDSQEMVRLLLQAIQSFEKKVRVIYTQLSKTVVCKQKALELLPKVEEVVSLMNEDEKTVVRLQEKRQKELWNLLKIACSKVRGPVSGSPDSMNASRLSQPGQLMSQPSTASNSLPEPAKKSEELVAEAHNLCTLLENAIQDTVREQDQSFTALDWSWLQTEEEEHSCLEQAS
T1 sequence (O15111 whole entry partner): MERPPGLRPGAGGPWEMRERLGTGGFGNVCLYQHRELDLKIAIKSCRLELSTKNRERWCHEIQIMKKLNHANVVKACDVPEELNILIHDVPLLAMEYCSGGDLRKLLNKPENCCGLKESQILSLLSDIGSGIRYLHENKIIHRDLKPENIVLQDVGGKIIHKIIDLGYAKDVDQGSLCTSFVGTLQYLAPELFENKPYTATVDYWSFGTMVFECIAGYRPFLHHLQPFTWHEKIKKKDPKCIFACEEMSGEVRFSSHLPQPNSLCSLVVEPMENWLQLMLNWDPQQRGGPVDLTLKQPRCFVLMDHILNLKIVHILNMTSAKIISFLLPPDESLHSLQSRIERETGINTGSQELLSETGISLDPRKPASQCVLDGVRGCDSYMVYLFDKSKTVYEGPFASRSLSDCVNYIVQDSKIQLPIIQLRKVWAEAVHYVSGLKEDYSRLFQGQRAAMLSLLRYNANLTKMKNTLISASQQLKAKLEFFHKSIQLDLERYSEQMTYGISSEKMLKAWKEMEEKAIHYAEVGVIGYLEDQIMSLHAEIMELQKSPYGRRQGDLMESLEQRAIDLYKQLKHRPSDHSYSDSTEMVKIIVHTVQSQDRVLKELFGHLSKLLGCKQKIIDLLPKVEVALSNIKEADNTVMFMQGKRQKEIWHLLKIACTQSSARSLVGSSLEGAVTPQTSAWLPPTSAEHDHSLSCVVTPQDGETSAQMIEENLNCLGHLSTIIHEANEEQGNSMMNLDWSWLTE
T1 sequence (Q9Y6K9 whole entry partner): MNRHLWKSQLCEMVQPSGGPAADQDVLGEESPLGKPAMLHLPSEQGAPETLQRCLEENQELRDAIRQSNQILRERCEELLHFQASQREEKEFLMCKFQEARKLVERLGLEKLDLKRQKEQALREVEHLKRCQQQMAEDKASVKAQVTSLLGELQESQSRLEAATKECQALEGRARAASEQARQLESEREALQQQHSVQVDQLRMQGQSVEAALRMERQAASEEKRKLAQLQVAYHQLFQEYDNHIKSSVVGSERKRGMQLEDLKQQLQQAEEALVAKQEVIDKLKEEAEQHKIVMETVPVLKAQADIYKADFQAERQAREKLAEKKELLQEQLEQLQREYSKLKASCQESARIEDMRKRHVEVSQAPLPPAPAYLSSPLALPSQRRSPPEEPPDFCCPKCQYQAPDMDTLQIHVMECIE

Question: For `N#CNC(=Nc1ccncc1)NCCCCCCOc1ccc(Cl)cc1` [compound A, N-(6-(4-chlorophenoxy)hexyl)-N′-cyano-N″-(4-pyridyl)guanidine], which “LPS-induced IκB degradation” value (IκBα, IκBβ) is on record?
Answer: much slower rate

Question: What about the IC50 (IKK; four independent experiments, read-out: IKK activity IC50, range of values) of the same compound?
Answer: 0.9 to 70 nM

Question: What about the IC50 (IKK; mean of four independent experiments, read-out: IKK activity, mean IC50 value) of the same compound?
Answer: 8 nM

Question: What about the IC50 (NF-κB) of the same compound?
Answer: 84 ± 33 nM
